The results in this text go back to US20100166804A1, “METHODS” (priority 2007, published 2010).

Experiment [1] relates to patients with a history of peanut allergy. Put plainly: Double-blind randomized oral food challenge with peanut flour (Example 1). It is filed as in vivo. The note with it: 1 mg ketotifen orally twice daily vs placebo; oral food challenge at two, four and six weeks. The protocol: (§1) To analyze hypersensitivity to an allergen, e.g., peanut, a double-blind, randomized, dose-ranging study is carried out with patients with a history of peanut allergy manifested by urticaria, angioedema, respiratory tract symptoms or hypotension generally using the methods described in Israel et al., Am. J. Respir. Crit. Care Med., (2000) 164:75-80. Eligible patients include those with serum total IgE level of 30-1000 IU/mL and/or a positive skin-prick test to peanut. Patients must have asthma condition under control with a forced expiratory volume in one second that is at least 80 percent of the predicted value. Patients may not have taken systemic corticosteroids, beta-blockers, acetylcholinesterase, aspirin, antihistamines and anti-depressants prior to and throughout the study.
Before enrollment, threshold level for reactivity to peanut allergen is confirmed by a screening double-blind, placebo-controlled oral food challenge. […] Vital signs are checked, chest auscultation is performed, and peak expiratory flow rates are monitored every 30 minutes during the food challenge and for at least 2 hours after the last dose or the abatement of any symptoms or signs. […]
(§2) Peak expiratory flow rates are monitored every 30 minutes during food challenge for at least 2 hours after the last does or abatement of any symptoms or signs. […]

For experiment [2] the test system is unchanged. Put plainly: Double-blind randomized dose-ranging oral food challenge with peanut flour (Example 3). The format is in vivo. Particulars: 0.5, 1 or 2 mg ketotifen orally twice daily vs placebo; oral food challenge at two, four and six weeks. As for the experimental part: as §1, with “to” for “to an allergen, e.g.,”, “take” for “have taken”, “during” for “prior to and throughout”
Before enrollment, threshold level for reactivity to peanut allergen is confirmed by a screening double-blind, placebo-controlled oral food challenge. Base line spirometry, peak expiratory flow rates and continuous cardiac monitoring is established. Vital signs are checked, chest auscultation is performed, and peak expiratory flow rates are monitored every 30 minutes during the food challenge and for at least 2 hours after the last dose or the abatement of any symptoms or signs. […]
as §2

In experiment [3] the test system is patients with a history of bee sting allergy. Put plainly: Double-blind randomized dose-ranging bee venom challenge (Example 4). The note with it: 0.5, 1 or 2 mg ketotifen orally twice daily vs placebo; bee venom challenge at two, four and six weeks. The format is in vivo. The protocol:
as §1, with “bee venom,” for “an allergen, e.g., peanut,”, “bee sting” for “peanut”, “bee venom.” for “peanut.”, “take” for “have taken”, “during” for “prior to and throughout”
Before enrollment, threshold level for reactivity to bee venom allergen is confirmed by a screening double-blind, placebo-controlled bee venom challenge. […] Vital signs are checked, chest auscultation is performed, and peak expiratory flow rates are monitored and bee venom specific IgE level and basal tryptase level are measured every 30 minutes during the challenge and for at least 2 hours after the last dose or the abatement of any symptoms or signs. […] The wheal size is evaluated 15 min after application. […] Patients are closely monitored for any systemic reaction. […]

The test system of experiment [4] is subjects with an allergy to peanut. Put plainly: Oral peanut tolerization therapy with concomitant ketotifen fumarate, randomized double-blind placebo-controlled (Example 5). The format is in vivo, patients. As for the experimental part: A study is performed to evaluate the dose-related effects of ketotifen fumarate on the scope and severity of allergic signs and symptoms resulting from concomitant oral peanut tolerization therapy. The study also evaluates the effects of discontinuation of ketotifen therapy on the scope and severity of allergic signs and symptoms resulting from concomitant oral peanut tolerization therapy after 12 or 16 weeks, while oral peanut tolerization therapy is continued. The study also evaluates the effects of ketotifen therapy on the scope and severity of allergic signs and symptoms resulting from concomitant oral peanut tolerization therapy when ketotifen dosing is initiated after 12 weeks of oral peanut tolerization therapy. The study generally consists of screening, baseline, treatment, and post-treatment follow-up periods, and is randomized, double-blind, placebo-controlled, and in parallel groups.
Patients selected are generally healthy subjects between the ages of 2 and 50 with an allergy to peanut which provokes signs and symptoms of an anaphylactic reaction. The patients may also have co-morbid atopic dermatitis and/or allergic rhinitis. If a patient is selected for the study, they are randomly assigned a treatment of 0.5 mg oral ketotifen fumarate, 2.0 mg oral ketotifen fumarate, or placebo (n=12 for each group).
During the treatment period, patients receive ketotifen fumarate or placebo for one week prior to tolerization therapy. At week 1, oral peanut tolerization therapy is begun with peanut flour, and safety evaluations are performed. The oral dose of peanut flour is increased at weeks 3, 5, 7, 9, 11 and 13, and safety evaluations are performed at that time.
At week 13, half of the patients in each of the ketotifen groups are switched in a double-blind fashion to placebo, and subjects in the placebo treatment group are switched in a double-blind fashion to receive 2.0 mg oral ketotifen. Patients continue in the study for an additional 4 weeks. At weeks 15 and 17, the peanut flour dose is increased, and safety evaluations are performed. […]

Where [5] appears, read: patients initially receiving ketotifen, switched to placebo at week 13, final 4 weeks.

SMILES strings stand for the structures.

Take `CN1CCC(=C2c3ccccc3CC(=O)c3sccc32)CC1` [ketotifen]: in experiment [1], the “patients' threshold sensitivity to peanut upon oral ingestion (change from base line in log-transformed threshold dose of peanut flour that induced hypersensitivity)” value was “significantly increase”. Moreover, in experiment [2], the “patients' tolerance to peanut upon oral ingestion (change from base line in log-transformed threshold dose of peanut flour that induced hypersensitivity)” value is recorded as “significantly increase”. For the same molecule, the “patients' tolerance to bee venom (change from base line in log-transformed threshold dose of bee venom that induced hypersensitivity)” value in experiment [3] was “significantly increase”. Further, the “amount of peanut flour that is well-tolerated” value in experiment [4] (0.5 mg or 2.0 mg oral ketotifen fumarate vs placebo during oral peanut tolerization therapy) is listed as “tolerate more peanut flour than patients in the placebo group”. Moreover, in experiment [4] (setting [5]), the “escape therapy required, vs patients continuously receiving ketotifen” value was “require similar escape therapy” and the “escape therapy required, vs patients continuously receiving the placebo” value is reported as “require less escape therapy”.
